Results published in paper PMC5522267, “Targeting PEPT1: a novel strategy to improve the antitumor efficacy of doxorubicin in human hepatocellular carcinoma therapy” (Oncotarget, 2017).
Counter-ions that a name gives are not always drawn. Marks after values point to notes of the source that are not given here.

What was measured:
[1] = test system: Bel-7402; assay: cells; format: cell-based, human; conditions: Homo sapiens
Description: (§1) Cells in the growth log phase were seeded in 96-well plate (200 ul/well) with density 8×10^3/well for 24 hours, then the drugs were added. The concentration of Doxorubicin-tripeptide conjugate was 0.005 mg/ml, 0.01 mg/ml, 0.02 mg/ml, 0.04 mg/ml, 0.06 mg/ml in turn, while Doxorubicin followed by 0.005 mg/ml, 0.01 mg/ml, 0.02 mg/ml, 0.04 mg/ml, 0.06 mg/ml with a same dosing volume 100 μl. Each concentration group included five equal wells and was provided with a control well of medium alone as a negative control. Add 20 μl of MTT Reagent ( 5 mg/ml, Sigma) to each well, including controls and continue to be incubated at 37°C for 4 hours. Remove the supernatant, drop plus DMSO (200 μl/well) and measure the OD value in each well, including the blanks, at 490 nm by a Multi-Mode Reader (BioTek, Synergy 2, USA). To calculate the inhibitory rate and the half maximal inhibitory concentration (IC50) according to the formula: Inhibitory rate =(1-( the dosing group OD/the control group OD )) × 100%, IC50 = lg^-1 (Xm-i (ΣP-0.5)) (Xm: the logarithm of maximum concentration, I: the logarithm of maximum dose/ adjacent dose, P: the sum of each group inhibitory rate, Pm: the maximum inhibitory rate, Pn: the minimum inhibitory rate ).

[2] = test system: HepG2; assay: cells; format: cell-based, human; conditions: Homo sapiens, HepG2, given as fraction, read-out: Inhibitory effect by MTT
Description: as §1

[3] = test system: Caco2; assay: cells; format: cell-based, human; conditions: Homo sapiens, Caco-2
Description: as §1

[4] = Blood routine, Bel-7402 HCC mice; format: in vivo, nude mice; conditions: high dose, after treatment
[5] = target: T1, PEPT1 (Homo sapiens, UniProt P46059); assay: Uptake, dynamic and competitive inhibition test; format: cell-based; conditions: inhibitors 0.01 mg/ml preincubated 30 mins, then drug 1 h
T1 construct: endogenous in cells; host or cells: Bel-7402, HepG2 (human HCC cells); Caco-2
T1 sequence (P46059 1-708): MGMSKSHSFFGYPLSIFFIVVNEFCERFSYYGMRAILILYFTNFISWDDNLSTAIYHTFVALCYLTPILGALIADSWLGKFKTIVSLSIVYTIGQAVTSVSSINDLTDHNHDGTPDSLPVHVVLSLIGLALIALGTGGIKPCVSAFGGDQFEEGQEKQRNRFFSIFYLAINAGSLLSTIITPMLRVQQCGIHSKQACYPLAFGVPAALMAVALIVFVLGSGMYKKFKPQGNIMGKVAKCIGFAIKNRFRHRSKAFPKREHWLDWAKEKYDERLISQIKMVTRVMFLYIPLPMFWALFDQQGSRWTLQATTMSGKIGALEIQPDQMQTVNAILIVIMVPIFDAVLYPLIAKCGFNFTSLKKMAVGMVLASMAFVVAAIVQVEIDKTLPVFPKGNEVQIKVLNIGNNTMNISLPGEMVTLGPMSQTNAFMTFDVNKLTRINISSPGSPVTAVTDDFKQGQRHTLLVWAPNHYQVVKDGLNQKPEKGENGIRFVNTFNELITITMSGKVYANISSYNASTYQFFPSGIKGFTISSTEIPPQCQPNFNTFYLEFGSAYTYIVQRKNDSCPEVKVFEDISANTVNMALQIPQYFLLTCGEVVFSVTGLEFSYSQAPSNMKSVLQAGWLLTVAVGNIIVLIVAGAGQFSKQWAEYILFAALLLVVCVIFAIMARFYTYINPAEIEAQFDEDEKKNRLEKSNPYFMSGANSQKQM
Description: The transport of Doxorubicin-tripeptide conjugate by PEPT1 was evaluated by time course, dynamic and competitive inhibition tests. The uptake study was performed on the confluent cell monolayer as described previously.
The uptake buffer was HBSS buffer (0.952 mM CaCl2, 5.36 mM KCl, 0.441 mM KH2PO4, 0.812 mM MgSO4, 136.7 mM NaCl, 0.385 mM Na2HPO4, 25 mM D-glucose, and 10 mM HEPES) adjusted to pH 6.0. […] Then four different initial concentrations (0.025 mg/ml, 0.05 mg/ml, 0.10 mg/ml, 0.15 mg/ml) of Doxorubicin-tripeptide conjugate were incubated with HCC cell monolayer at pH 6.0 for 120 min. At last, 0.05 mg/ml Doxorubicin-tripeptide conjugate was fed to HCC cells at different pH uptake buffer (5.4, 6, 7.4 and 8.4) for 120 min. Inhibition tests were conducted by preincubating the cells with competitive compounds Gly-Sar, Gly-Gln, Gly-Gly-Gly (0.01 mg/ml) respectively for 30 mins and then incubated with Doxorubicin-tripeptide conjugate (0.05 mg/ml) for 1 h. After removing the buffer and rapidly washing 3 times with ice-cold PBS, the cellular uptake was specifically examined with a Multi-Mode Reader (BioTek, Synergy 2, USA) with Excitation 485/20 and Emission 590/35.

[6] = HCC mice, both dose groups
Description: After the HCC mice model was established, the nude mice were randomly assigned to three groups: Group A (control group: administration with normal saline 0.2 ml every time), group B (administration with Doxorubicin-tripeptide conjugate) and group C (administration with Doxorubicin). […] Treatment was conducted every 3 weeks for 5 weeks. Pay close attention to the general condition of the mice and their subcutaneous tumor and draw survivorship curve. The mice were weighed every 3 days and tumor volume was measured with a digital caliper using the formula: volume = (1/6).π. length × width × height. At the end of the experiment, tumor weight and volume was measured to obtained the tumor inhibitory rate and actual volume, which were calculated by the follow formula respectively: tumor inhibitory rate = (The average tumor weight of control group-experimental group)/control group × 100 %. volume = (1/6).π. length × width × height.
After the course of administration, mice were sacrificed, then the blood was collected to detect relevant indexes including quantitative serum protein, blood routine, myocardial enzymes (CK, CK-MB, LDH, AST), GSH-PX, MDA and SOD, the bone marrow taken to make bone marrow smear. What's more, the tumor, liver, jejunum and heart tissue of mice were dissected firstly for Small Animal Imaging (KODAK IS in-vivo FX, Kodak), and secondly were placed in the 10% Formaldehyde solution to prepare paraffin section, HE staining for histological examination. […] The tests of CK, CK-MB, LDH, AST, GSH-PX, MDA and SOD were completed in accordance with instructions strictly (Jiancheng Bioengineering Institute, Nanjing, China).

**Q.** For COc1cccc2c1C(=O)c1c(O)c3c(c(O)c1C2=O)C[C@@](O)(C(=O)CO)C[C@@H]3O[C@H]1C[C@H](N)[C@H](O)[C@H](C)O1 [Doxorubicin, Doxorubicin hydrochloride], which IC50 ([1]; Bel-7402, MTT, read-out: IC50) is on record?
**A.** The IC50 was 13.8 mg/L.

**Q.** What about the inhibition at 5 µg/mL ([1]; Bel-7402, drug 0.005 mg/ml, given as fraction, read-out: Inhibitory effect by MTT) of the same compound?
**A.** The inhibition at 5 µg/mL was 38.8%.

**Q.** What about the inhibition at 10 µg/mL ([1]; Bel-7402, drug 0.01 mg/ml, given as fraction, read-out: Inhibitory effect by MTT) of the same compound?
**A.** The inhibition at 10 µg/mL was 49.1%.

**Q.** And the inhibition at 20 µg/mL ([1]; Bel-7402, drug 0.02 mg/ml, given as fraction, read-out: Inhibitory effect by MTT)?
**A.** The inhibition at 20 µg/mL was 61.2%.

**Q.** And the inhibition at 40 µg/mL ([1]; Bel-7402, drug 0.04 mg/ml, given as fraction, read-out: Inhibitory effect by MTT)?
**A.** The inhibition at 40 µg/mL was 70%.

**Q.** What about the inhibition at 80 µg/mL ([1]; Bel-7402, drug 0.08 mg/ml, given as fraction, read-out: Inhibitory effect by MTT) of the same compound?
**A.** Its inhibition at 80 µg/mL is 79.8%.

**Q.** And the inhibition at 5 µg/mL ([2]; drug 0.005 mg/ml)?
**A.** The inhibition at 5 µg/mL was 34.6%.

**Q.** And the inhibition at 10 µg/mL ([2]; drug 0.01 mg/ml)?
**A.** Its inhibition at 10 µg/mL is 42.2%.

**Q.** And the inhibition at 20 µg/mL ([2]; drug 0.02 mg/ml)?
**A.** Its inhibition at 20 µg/mL is 57.3%.

**Q.** And the inhibition at 40 µg/mL ([2]; drug 0.04 mg/ml)?
**A.** Its inhibition at 40 µg/mL is 66.6%.

**Q.** And the inhibition at 80 µg/mL ([2]; drug 0.08 mg/ml)?
**A.** The inhibition at 80 µg/mL was 87.9%.

**Q.** And the IC50 ([3]; Caco2, MTT, read-out: IC50)?
**A.** The IC50 was 15.4 mg/L.

**Q.** And the inhibition at 5 µg/mL ([3]; Caco2, drug 0.005 mg/ml, given as fraction, read-out: Inhibitory effect by MTT)?
**A.** The inhibition at 5 µg/mL was 34.6%.

**Q.** What about the inhibition at 10 µg/mL ([3]; Caco2, drug 0.01 mg/ml, given as fraction, read-out: Inhibitory effect by MTT) of the same compound?
**A.** The inhibition at 10 µg/mL was 50%.

**Q.** What about the inhibition at 20 µg/mL ([3]; Caco2, drug 0.02 mg/ml, given as fraction, read-out: Inhibitory effect by MTT) of the same compound?
**A.** The inhibition at 20 µg/mL was 57.9%.

**Q.** And the inhibition at 40 µg/mL ([3]; Caco2, drug 0.04 mg/ml, given as fraction, read-out: Inhibitory effect by MTT)?
**A.** The inhibition at 40 µg/mL was 62.3%.

**Q.** And the inhibition at 80 µg/mL ([3]; Caco2, drug 0.08 mg/ml, given as fraction, read-out: Inhibitory effect by MTT)?
**A.** The inhibition at 80 µg/mL was 78.9%.

**Q.** And the PLT [4]?
**A.** Its PLT is 81.33 ± 27.50^a ×10^9/l.

**Q.** And the RBC [4]?
**A.** The RBC was 6.90 ± 2.32 ×10^12/l.

**Q.** And the WBC [4]?
**A.** Its WBC is 3.66 ± 2.58^a ×10^9/l.

**Q.** And the “uptake in presence of inhibitors Gly-Sar, Gly-Gln or Gly-Gly-Gly” value [5]?
**A.** The value was “not”.

**Q.** What about the “change of mice weight during treatment” value [6] of the same compound?
**A.** Its value is “the most significant”.
